Data from publication PMC3626250, “Effects of Borneol on Pharmacokinetics and Tissue Distribution of Notoginsenoside R1 and Ginsenosides Rg1 and Re in Panax notoginseng in Rabbits” (Journal of Analytical Methods in Chemistry, 2013).
Like-named read-outs stand apart in the source and are kept apart here.

How the values were obtained:
[1] = Tissue distribution study in rabbits after oral Panax notoginseng extract with or without Borneol; assay type: in vivo, New Zealand rabbits; details: New Zealand, rabbit; for Kp at 1 h: oral, Borneol combined with Panax notoginseng; for concentration at 0.5 h / concentration at 1 h / concentration at 3 h: po; for concentration at 3 h: 3 mL·kg^−1, 3.0 h
Procedure: Frozen plasma and tissue samples were thawed in a water bath at 37°C and were then vortexed followed by centrifuging at 5000 r·min^−1 for 5 min. An aliquot of 1.0 mL of the supernatant from each sample was loaded onto C18 Bond Elute Solid phase extraction (SPE) cartridges (1000 mg, 1 cc reservoir, Varian, Harbor City, CA, USA) pretreated with 2.0 mL hexane, isopropanol, methanol, and water, sequentially. The SPE cartridges were then washed with 1.0 mL water, 20% methanol/water solution, 40% methanol/water solution, and 60% methanol/water solution, sequentially. Finally, analytes were eluted twice with 1.0 mL of 70% methanol/water solution. The eluant was evaporated to dryness under nitrogen. The residues were then reconstituted in 1.0 mL mobile phase. An aliquot of 10 μL was injected into the LC-MS system.
One group of rabbits (n = 18) was orally administered a dose of 3.0 mL·kg^−1 Panax notoginseng extract, while another group of rabbits (n = 18) was orally given 3.0 mL·kg^−1 Panax notoginseng extract combined with Borneol. At 0.5, 1, and 3 h after administration, blood samples were collected from the central ear artery of six rabbits from each group, and the heart, liver, lung, kidney, and brain were immediately removed after animals were sacrificed by decapitation. An accurately weighed amount of tissue (1 g) was collected to be rinsed, dried, minced, and homogenized (400 r·min^−1) in normal saline (1.5 mL). All of the samples were stored at −70°C and were processed prior to analysis with the proposed method as described in Section 2.6.

[2] = Stability in plasma samples and tissue homogenates of rabbits; assay type: physicochemical; details: kidney homogenate
Procedure: The precision of the assay was determined for the quality control (QC) plasma and tissue […] Intraday precision and accuracy were determined via repeated analysis of the QC plasma and tissue samples within one day (n = 5). Interday precision and accuracy were determined via repeated analysis on five consecutive days. The concentration of each sample was determined using the prepared calibration curve and analyzed on the same day. All stabilities were evaluated at different concentration levels. Short-term stability of NGR1, GRg1, and GRe were assessed by analyzing QC samples kept at 4°C for 4–24 h. Freeze-thaw stability was evaluated at three consecutive freeze-thaw cycles. Long-term stability was studied by analyzing samples during a period of 8 weeks of storage at −70°C.
The stability studies were performed by evaluating small variations in three different conditions.

[3] = tested on: Caco-2 cells; assay: MTT cytotoxicity assay toward Caco-2 cells; assay type: cell-based; details: chosen for transport study
Procedure: The Caco-2 cells were cultured in Dulbecco's modified Eagle's medium (DMEM) supplemented with 20% foetal bovine serum, 1% nonessential amino acids and penicillin-streptomycin, at 37°C in an atmosphere with a relative humidity of 95% and a CO2 flow of 5%. Medium was replaced every 2-3 days. When the cell monolayer reached 80% confluence, the cells were detached with a solution of 0.02% EDTA and 0.25% trypsin. The vinblastine-selected Caco-2 cells were cultivated in the presence of 10 nM vinblastine to induce P-glycoprotein (P-gp) expression. The culture medium was changed to a fresh medium without vinblastine 24 h before experiments, and the cells were used between passages 25 and 46. Prior to the transport study, cytotoxicity of NGR1, GRg1, GRe, and Borneol toward Caco-2 cells was determined using MTT assays. Noncytotoxic concentrations of 500 μM NGR1, GRg1, GRe, and 200 μM Borneol (dissolved in DMSO) were chosen for transport study.

Kp at 1 h ([1]; brain, peak levels at 1.0 h, read-out: level in brain, fold higher than the plasma concentrations): 11.8
concentration at 0.5 h ([1]; brain, 3 mL·kg^−1, 0.5 h, oral Panax notoginseng with Borneol, read-out: Concentration in brain): 20600 ± 1360 ng/g
concentration at 0.5 h ([1]; brain, 3 mL·kg^−1, 0.5 h, oral Panax notoginseng, read-out: Concentration in brain): 750 ± 110 ng/g
concentration at 1 h ([1]; brain, 3 mL·kg^−1, 1.0 h, oral Panax notoginseng, read-out: Concentration in brain): 910 ± 890 ng/g
concentration at 3 h ([1]; brain, oral Panax notoginseng with Borneol, read-out: Concentration in brain): 17900 ± 2600 ng/g
concentration at 3 h ([1]; brain, oral Panax notoginseng, read-out: Concentration in brain): 570 ± 200 ng/g
concentration at 1 h ([1]; brain, 1.0 h, oral Panax notoginseng with Borneol, read-out: Concentration in brain): 25700 ± 2690 ng/g
Kp at 1 h ([1]; heart, peak levels at 1.0 h, read-out: level in heart, fold higher than the plasma concentrations): 12.4
concentration at 0.5 h ([1]; heart, 3 mL·kg^−1, 0.5 h, oral Panax notoginseng with Borneol, read-out: Concentration in heart): 22600 ± 360 ng/g
concentration at 0.5 h ([1]; heart, 3 mL·kg^−1, 0.5 h, oral Panax notoginseng, read-out: Concentration in heart): 2210 ± 760 ng/g
concentration at 1 h ([1]; heart, 3 mL·kg^−1, 1.0 h, oral Panax notoginseng, read-out: Concentration in heart): 2940 ± 240 ng/g
concentration at 3 h ([1]; heart, oral Panax notoginseng with Borneol, read-out: Concentration in heart): 19100 ± 1160 ng/g
concentration at 3 h ([1]; heart, oral Panax notoginseng, read-out: Concentration in heart): 1530 ± 450 ng/g
concentration at 1 h ([1]; heart, 1.0 h, oral Panax notoginseng with Borneol, read-out: Concentration in heart): 27000 ± 310 ng/g
Kp at 1 h ([1]; kidney, at 1.0 h, read-out: level in kidney, fold higher than the plasma concentrations): 7.77
concentration at 0.5 h ([1]; kidney, 3 mL·kg^−1, 0.5 h, oral Panax notoginseng with Borneol, read-out: Concentration in kidney): 27540 ± 170 ng/g
concentration at 0.5 h ([1]; kidney, 3 mL·kg^−1, 0.5 h, oral Panax notoginseng, read-out: Concentration in kidney): 4050 ± 260 ng/g
concentration at 1 h ([1]; kidney, 3 mL·kg^−1, 1.0 h, oral Panax notoginseng, read-out: Concentration in kidney): 3670 ± 380 ng/g
concentration at 3 h ([1]; kidney, oral Panax notoginseng with Borneol, read-out: Concentration in kidney): 10200 ± 2770 ng/g
concentration at 3 h ([1]; kidney, oral Panax notoginseng, read-out: Concentration in kidney): 3030 ± 230 ng/g
concentration at 1 h ([1]; kidney, 1.0 h, oral Panax notoginseng with Borneol, read-out: Concentration in kidney): 16900 ± 810 ng/g
Kp at 1 h ([1]; liver, peak levels at 1.0 h, read-out: level in liver, fold higher than the plasma concentrations): 27.1
concentration at 0.5 h ([1]; liver, 3 mL·kg^−1, 0.5 h, oral Panax notoginseng with Borneol, read-out: Concentration in liver): 50100 ± 1950 ng/g
concentration at 0.5 h ([1]; liver, 3 mL·kg^−1, 0.5 h, oral Panax notoginseng, read-out: Concentration in liver): 8480 ± 530 ng/g
concentration at 1 h ([1]; liver, 3 mL·kg^−1, 1.0 h, oral Panax notoginseng, read-out: Concentration in liver): 8850 ± 510 ng/g
concentration at 3 h ([1]; liver, oral Panax notoginseng with Borneol, read-out: Concentration in liver): 37800 ± 3430 ng/g
concentration at 3 h ([1]; liver, oral Panax notoginseng, read-out: Concentration in liver): 6180 ± 590 ng/g
concentration at 1 h ([1]; liver, 1.0 h, oral Panax notoginseng with Borneol, read-out: Concentration in liver): 59000 ± 3740 ng/g
Kp at 1 h ([1]; lung, peak levels at 1.0 h, read-out: level in lung, fold higher than the plasma concentrations): 8.17
concentration at 0.5 h ([1]; lung, 3 mL·kg^−1, 0.5 h, oral Panax notoginseng with Borneol, read-out: Concentration in lung): 15100 ± 3240 ng/g
concentration at 0.5 h ([1]; lung, 3 mL·kg^−1, 0.5 h, oral Panax notoginseng, read-out: Concentration in lung): 14300 ± 430 ng/g
concentration at 1 h ([1]; lung, 3 mL·kg^−1, 1.0 h, oral Panax notoginseng, read-out: Concentration in lung): 15300 ± 640 ng/g
concentration at 3 h ([1]; lung, oral Panax notoginseng with Borneol, read-out: Concentration in lung): 12300 ± 1460 ng/g
concentration at 3 h ([1]; lung, oral Panax notoginseng, read-out: Concentration in lung): 11900 ± 710 ng/g
concentration at 1 h ([1]; lung, 1.0 h, oral Panax notoginseng with Borneol, read-out: Concentration in lung): 17800 ± 1250 ng/g
concentration at 0.5 h ([1]; plasma, 3 mL·kg^−1, 0.5 h, oral Panax notoginseng, read-out: Concentration in plasma): 1970 ± 160 ng/mL
concentration at 1 h ([1]; plasma, 3 mL·kg^−1, 1.0 h, oral Panax notoginseng, read-out: Concentration in plasma): 1990 ± 60 ng/mL
concentration at 3 h ([1]; plasma, oral Panax notoginseng with Borneol, read-out: Concentration in plasma): 920 ± 10 ng/mL
concentration at 3 h ([1]; plasma, oral Panax notoginseng, read-out: Concentration in plasma): 980 ± 10 ng/mL
concentration at 0.5 h ([1]; plasma, 0.5 h, oral Panax notoginseng with Borneol, read-out: Concentration in plasma): 2870 ± 60 ng/mL
concentration at 1 h ([1]; plasma, 1.0 h, oral Panax notoginseng with Borneol, read-out: Concentration in plasma): 2180 ± 90 ng/mL
Remaining, Short-term stability ([2]; QC 0.4 μg·mL^−1, 4°C for 4–24 h): 91.5 ± 6.5%
Remaining, Long-term stability ([2]; QC 0.4 μg·mL^−1, 8 weeks at −70°C): 90.8 ± 6.1%
Remaining, Freeze-thaw stability ([2]; QC 0.4 μg·mL^−1, three freeze-thaw cycles): 90.5 ± 7.8%
Remaining, Short-term stability ([2]; QC 3.0 μg·mL^−1, 4°C for 4–24 h): 95.9 ± 4.5%
Remaining, Long-term stability ([2]; QC 3.0 μg·mL^−1, 8 weeks at −70°C): 91.6 ± 11.2%
Remaining, Freeze-thaw stability ([2]; QC 3.0 μg·mL^−1, three freeze-thaw cycles): 94.7 ± 3.7%
Remaining, Short-term stability ([2]; QC 40.0 μg·mL^−1, 4°C for 4–24 h): 102.1 ± 5.7%
Remaining, Long-term stability ([2]; QC 40.0 μg·mL^−1, 8 weeks at −70°C): 95.7 ± 4.6%
Remaining, Freeze-thaw stability ([2]; QC 40.0 μg·mL^−1, three freeze-thaw cycles): 91.2 ± 10.6%
SMILES: CC(C)=CCC[C@](C)(O[C@@H]1O[C@H](CO)[C@@H](O)[C@H](O)[C@H]1O)[C@H]1CC[C@]2(C)[C@@H]1[C@H](O)C[C@@H]1[C@@]3(C)CC[C@H](O)C(C)(C)[C@@H]3[C@@H](O[C@@H]3O[C@H](CO)[C@@H](O)[C@H](O)[C@H]3O)C[C@]12C [GRg1, ginsenoside Rg1]
Noncytotoxic concentration [3]: 500 µM
